{
  "source": "patent US20240279207A1",
  "about": "“SUBSTITUTED ACYL SULFONAMIDES FOR TREATING CANCER” (The Broad Institute, Inc., priority 2020, published 2024)",
  "key": {"MDA-MB-436 cells": {"tested_on": "MDA-MB-436 cells", "test": "MDA-MB-436 proliferation assay (negative control cell line)", "type": "cell-based", "details": "Homo sapiens, 144 h, Alamar Blue, read-out: MDA-MB-436 proliferation assay, EC50 [M] (arithmetic mean)", "outline": "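MDA-MB-436 cells (KAT6A deletion, low KAT6A protein) seeded at 3000 cells/well in DMEM/Ham's F12 with 2.5% FBS, treated in triplicate for 144 h at 37° C, 5% CO2. Viability read by Alamar Blue fluorescence at 590 nm after 2 h.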"}, "[1]": {"target": "T1, Recombinant human His-tagged Kat6a protein (amino acids 194-810) (Homo sapiens, UniProt Q92794)", "T1 construct": "Kat6a protein (amino acids 194-810); His", "T1 sequence (Q92794 194-810)": "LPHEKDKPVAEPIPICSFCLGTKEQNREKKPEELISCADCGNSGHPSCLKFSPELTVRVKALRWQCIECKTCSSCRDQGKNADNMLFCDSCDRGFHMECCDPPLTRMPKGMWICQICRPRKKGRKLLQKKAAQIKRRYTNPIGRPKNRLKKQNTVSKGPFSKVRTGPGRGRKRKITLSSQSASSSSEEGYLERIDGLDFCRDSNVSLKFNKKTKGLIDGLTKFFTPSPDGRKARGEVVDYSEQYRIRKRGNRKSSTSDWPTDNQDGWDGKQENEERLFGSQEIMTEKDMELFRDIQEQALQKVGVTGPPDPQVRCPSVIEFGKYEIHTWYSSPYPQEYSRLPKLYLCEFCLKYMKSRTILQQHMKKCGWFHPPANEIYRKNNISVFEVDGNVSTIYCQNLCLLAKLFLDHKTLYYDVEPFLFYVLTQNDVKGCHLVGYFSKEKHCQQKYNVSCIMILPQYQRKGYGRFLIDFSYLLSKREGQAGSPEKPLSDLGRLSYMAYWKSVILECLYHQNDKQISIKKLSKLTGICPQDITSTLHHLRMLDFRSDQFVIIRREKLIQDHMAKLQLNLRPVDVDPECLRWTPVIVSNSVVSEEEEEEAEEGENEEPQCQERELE", "test": "Kat6a activity assay (TR-FRET, acetylation of Histone-H4-derived peptide)", "type": "biochemical", "details": "60 mins at 22° C., 220 nM H4 peptide, 600 nM Acetyl Coenzyme A, read-out: KAT6A - DPF/HAT domain IC50 [mol/l] (arithmetic mean)"}, "ZR-75-1 cells": {"tested_on": "ZR-75-1 cells", "test": "ZR-75-1 proliferation assay", "type": "cell-based", "details": "Homo sapiens, ZR-75-1, 144 h, Alamar Blue, read-out: ZR75-1 proliferation assay, EC50 [M] (arithmetic mean)", "outline": "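ZR-75-1 cells (focal KAT6A amplification), 3000 per well in RPMI 1640 with 2.5% FBS, were exposed to compound in triplicate for 144 h at 37 °C, 5% CO2. Viability read by Alamar Blue fluorescence at 590 nm after 2 h.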"}, "[2]": {"tested_on": "ESR1 transcription in MVLN cells", "test": "MVLN reporter assay: repression of ESR1 transcription (luciferase signal)", "type": "cell-based", "details": "Homo sapiens, MVLN, 24 h, luciferase signal after 24 h, read-out: MVLN reporter assay, IC50 [M] (arithmetic mean)", "outline": "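MVLN cells, expressing ER and stably carrying a vitellogenin A2 ERE-luciferase reporter, treated with compound in duplicate; luciferase read after 24 h with Steadylite plus. Cell density checked in parallel by Alamar Blue fluorescence (530/590 nm, 2 h) before the luciferase read.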"}, "[3]": {"target": "T2, Recombinant human GST-tagged Kat6b protein (431-end) (Homo sapiens, UniProt Q8WYB5)", "T2 construct": "Kat6b protein (431-end, N-terminal GST-tag); GST (N)", "T2 sequence (Q8WYB5 431-2073)": "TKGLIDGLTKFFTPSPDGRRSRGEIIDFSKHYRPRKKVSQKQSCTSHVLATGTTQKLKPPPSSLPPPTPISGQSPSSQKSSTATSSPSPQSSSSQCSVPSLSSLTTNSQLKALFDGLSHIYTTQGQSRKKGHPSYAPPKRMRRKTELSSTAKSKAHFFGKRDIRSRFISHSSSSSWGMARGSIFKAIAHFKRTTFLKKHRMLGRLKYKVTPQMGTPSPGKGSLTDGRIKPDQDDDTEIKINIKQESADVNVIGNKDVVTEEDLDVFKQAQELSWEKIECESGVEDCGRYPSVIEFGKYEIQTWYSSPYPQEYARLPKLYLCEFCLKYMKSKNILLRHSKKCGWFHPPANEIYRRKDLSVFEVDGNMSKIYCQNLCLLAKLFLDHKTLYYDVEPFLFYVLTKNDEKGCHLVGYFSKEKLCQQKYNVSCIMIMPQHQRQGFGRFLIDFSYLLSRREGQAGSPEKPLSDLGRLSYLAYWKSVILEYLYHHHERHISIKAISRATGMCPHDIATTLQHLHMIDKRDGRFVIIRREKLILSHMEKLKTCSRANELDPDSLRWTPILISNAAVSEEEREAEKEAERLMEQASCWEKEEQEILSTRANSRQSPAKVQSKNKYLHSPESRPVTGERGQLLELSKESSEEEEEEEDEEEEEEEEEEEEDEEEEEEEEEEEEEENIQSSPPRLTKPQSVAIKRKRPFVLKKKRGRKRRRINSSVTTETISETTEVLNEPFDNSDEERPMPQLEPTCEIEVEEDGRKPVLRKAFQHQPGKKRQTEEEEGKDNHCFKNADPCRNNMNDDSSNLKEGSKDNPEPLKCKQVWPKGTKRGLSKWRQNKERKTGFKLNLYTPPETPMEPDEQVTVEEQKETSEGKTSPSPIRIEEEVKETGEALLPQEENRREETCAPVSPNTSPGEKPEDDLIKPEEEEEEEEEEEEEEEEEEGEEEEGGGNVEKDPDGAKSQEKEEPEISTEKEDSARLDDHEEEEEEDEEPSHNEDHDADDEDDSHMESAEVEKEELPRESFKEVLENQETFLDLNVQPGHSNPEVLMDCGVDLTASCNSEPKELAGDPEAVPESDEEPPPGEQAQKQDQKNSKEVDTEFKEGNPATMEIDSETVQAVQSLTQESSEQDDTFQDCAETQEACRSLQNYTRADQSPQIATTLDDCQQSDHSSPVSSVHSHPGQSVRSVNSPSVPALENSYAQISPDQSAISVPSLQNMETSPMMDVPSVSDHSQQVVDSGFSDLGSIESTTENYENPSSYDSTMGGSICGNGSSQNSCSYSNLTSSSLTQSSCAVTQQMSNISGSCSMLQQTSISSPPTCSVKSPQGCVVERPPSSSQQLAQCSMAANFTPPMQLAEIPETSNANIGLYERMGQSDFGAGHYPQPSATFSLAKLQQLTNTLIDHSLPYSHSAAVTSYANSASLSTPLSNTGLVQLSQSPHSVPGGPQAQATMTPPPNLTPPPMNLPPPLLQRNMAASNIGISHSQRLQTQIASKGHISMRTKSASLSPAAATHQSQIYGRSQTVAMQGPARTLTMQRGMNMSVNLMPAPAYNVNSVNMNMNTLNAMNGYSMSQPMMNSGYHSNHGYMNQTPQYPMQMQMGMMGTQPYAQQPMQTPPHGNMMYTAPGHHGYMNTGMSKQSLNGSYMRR", "test": "Kat6b activity assay (TR-FRET, acetylation of Histone-H4-derived peptide)", "type": "biochemical", "details": "30 mins at 22° C., 500 nM H4 peptide, 600 nM Acetyl Coenzyme A, read-out: KAT6B activity assay IC50 [mol/l] (arithmetic mean)", "protocol": "Kat6b inhibitory activities of the compounds described in the present invention were quantified using a Fluorescence Resonance Energy Transfer (TR-FRET) assay which measures acetylation of a synthetic, biotinylated Histone-H4-derived peptide by the enzyme.\nIn this case 50 nl DMSO were used instead of compounds. […] IC50 values were determined by regression analysis based on a 4 parameter equation (minimum, maximum, ICM, Hill; Y=Max+(Min−Max)/(1+(X/ICso) Hill) using the Screener Software (Genedata)."}, "LCLC97TM1": {"tested_on": "LCLC97TM1", "test": "LCLC97TM1 proliferation assay", "type": "cell-based", "details": "Homo sapiens, LCLC-97TM1, LCLC97TM1; read-out: LCLC97TM1 proliferation assay; EC50 [M] (arithmetic mean)"}},
  "note": "pIC50: −log10 of the molar value.",
  "data": [
    {"smiles": "CC(C)Oc1ccccc1S(=O)(=O)NC(=O)c1cc2c(F)cc(N3CCC3)cc2o1", "note": "[Example 129, 6-(Azetidin-1-yl)-4-fluoro-N-{2-[(propan-2-yl)oxy]benzene-1-sulfonyl}-1-benzofuran-2-carboxamide]", "values": [
      {"measurement": "EC50", "setting": "MDA-MB-436 cells", "value": "> 2e-05", "unit": "M"},
      {"measurement": "pIC50", "setting": "[1]", "value": 7.44},
      {"measurement": "EC50", "setting": "ZR-75-1 cells", "value": "1.42e-07", "unit": "M"},
      {"measurement": "IC50", "setting": "[2]", "value": "2.74e-08", "unit": "M"},
      {"measurement": "pIC50", "setting": "[3]", "value": 7.29},
      {"measurement": "EC50", "setting": "LCLC97TM1", "value": "4.11e-07", "unit": "M"}
    ]},
    {"smiles": "CCOc1ccc(C(C)C)cc1S(=O)(=O)NC(=O)c1cc2c(F)cc(N3CC(F)C3)cc2o1", "note": "[Example 151, N-[2-ethoxy-5-(propan-2-yl)benzene-1-sulfonyl]-4-fluoro-6-(3-fluoroazetidin-1-yl)-1-benzofuran-2-carboxamide]", "values": [
      {"measurement": "EC50", "setting": "MDA-MB-436 cells", "value": "> 2e-05", "unit": "M"},
      {"measurement": "pIC50", "setting": "[1]", "value": 8.24},
      {"measurement": "EC50", "setting": "ZR-75-1 cells", "value": "5.67e-08", "unit": "M"},
      {"measurement": "IC50", "setting": "[2]", "value": "1.55e-08", "unit": "M"},
      {"measurement": "pIC50", "setting": "[3]", "value": 7.86},
      {"measurement": "EC50", "setting": "LCLC97TM1", "value": "6.63e-08", "unit": "M"}
    ]},
    {"smiles": "Cc1ccc2cccc(S(=O)(=O)NC(=O)c3cc4c(F)cc(N5CCC5)cc4o3)c2n1", "note": "[Example 130, 6-(Azetidin-1-yl)-4-fluoro-N-(2-methylquinoline-8-sulfonyl)-1-benzofuran-2-carboxamide]", "values": [
      {"measurement": "EC50", "setting": "MDA-MB-436 cells", "value": "> 2e-05", "unit": "M"},
      {"measurement": "pIC50", "setting": "[1]", "value": 7.86},
      {"measurement": "EC50", "setting": "ZR-75-1 cells", "value": "8.86e-08", "unit": "M"},
      {"measurement": "IC50", "setting": "[2]", "value": "3.23e-08", "unit": "M"},
      {"measurement": "pIC50", "setting": "[3]", "value": 7.71},
      {"measurement": "EC50", "setting": "LCLC97TM1", "value": "2.36e-07", "unit": "M"}
    ]},
    {"smiles": "Cc1ccc2cccc(S(=O)(=O)NC(=O)c3cc4c(F)cc(N5CC(F)C5)cc4o3)c2n1", "note": "[Example 152, 4-Fluoro-6-(3-fluoroazetidin-1-yl)-N-(2-methylquinoline-8-sulfonyl)-1-benzofuran-2-carboxamide]", "values": [
      {"measurement": "EC50", "setting": "MDA-MB-436 cells", "value": "> 2e-05", "unit": "M"},
      {"measurement": "pIC50", "setting": "[1]", "value": 7.86},
      {"measurement": "EC50", "setting": "ZR-75-1 cells", "value": "7.66e-08", "unit": "M"},
      {"measurement": "IC50", "setting": "[2]", "value": "3.69e-08", "unit": "M"},
      {"measurement": "pIC50", "setting": "[3]", "value": 7.69},
      {"measurement": "EC50", "setting": "LCLC97TM1", "value": "1.63e-07", "unit": "M"}
    ]},
    {"smiles": "CCOc1ccc(C(C)C)cc1S(=O)(=O)NC(=O)c1cc2c(F)cc(N3CCC3)cc2o1", "note": "[Example 128, 6-(Azetidin-1-yl)-N-[2-ethoxy-5-(propan-2-yl)benzene-1-sulfonyl]-4-fluoro-1-benzofuran-2-carboxamide]", "values": [
      {"measurement": "EC50", "setting": "MDA-MB-436 cells", "value": "> 2e-05", "unit": "M"},
      {"measurement": "pIC50", "setting": "[1]", "value": 8.09},
      {"measurement": "EC50", "setting": "ZR-75-1 cells", "value": "6.73e-08", "unit": "M"},
      {"measurement": "IC50", "setting": "[2]", "value": "1.9e-08", "unit": "M"},
      {"measurement": "pIC50", "setting": "[3]", "value": 7.82},
      {"measurement": "EC50", "setting": "LCLC97TM1", "value": "2.2e-07", "unit": "M"}
    ]}
  ]
}
